In brackets after ≈: the same amount, converted by molar mass. Read-outs that look alike come from different tables or passages of the source.
Test system: P. aeruginosa
Assay: MIC, broth microdilution, CDC/FDA Antibiotic Resistance Isolate Bank (Example 7, Tables 10, 15)
Assay type: cell-based
Conditions: Pseudomonas aeruginosa, read-out: MIC

Q: Which results are given for `CO/N=C(\C(=O)N[C@@H]1C(=O)N2C(C(=O)[O-])=C(C[n+]3ccn4ncccc43)CS[C@H]12)c1nsc(N)n1` [Cefozopran, cefozopran]?
A: MIC (P. aeruginosa KUB No. 5668, AR Bank # 235): > 64 µg/mL; MIC (P. aeruginosa KUB No. 5669, AR Bank # 236): 4 µg/mL (≈ 7.76 µM); MIC (P. aeruginosa KUB No. 5670, AR Bank # 237): 0.5 µg/mL (≈ 0.97 µM); MIC (P. aeruginosa KUB No. 5671, AR Bank # 238): 1 µg/mL (≈ 1.94 µM); MIC (P. aeruginosa KUB No. 5672, AR Bank # 239): > 64 µg/mL; MIC (P. aeruginosa KUB No. 5673, AR Bank # 240): > 64 µg/mL; MIC (P. aeruginosa KUB No. 5674, AR Bank # 241): > 64 µg/mL; MIC (P. aeruginosa KUB No. 5675, AR Bank # 242): > 64 µg/mL; MIC (P. aeruginosa KUB No. 5676, AR Bank # 243): > 64 µg/mL; MIC (P. aeruginosa KUB No. 5677, AR Bank # 244): 8 µg/mL (≈ 15.5 µM); MIC (P. aeruginosa KUB No. 5678, AR Bank # 245): > 64 µg/mL; MIC (P. aeruginosa KUB No. 5679, AR Bank # 246): > 64 µg/mL; MIC (P. aeruginosa KUB No. 5680, AR Bank # 247): 4 µg/mL (≈ 7.76 µM); MIC (P. aeruginosa KUB No. 5681, AR Bank # 248): > 64 µg/mL; MIC (P. aeruginosa KUB No. 5682, AR Bank # 249): > 64 µg/mL; MIC (P. aeruginosa KUB No. 5684, AR Bank # 251): 8 µg/mL (≈ 15.5 µM); MIC (P. aeruginosa KUB No. 5685, AR Bank # 252): 16 µg/mL (≈ 31 µM); MIC (P. aeruginosa KUB No. 5686, AR Bank # 253): 4 µg/mL (≈ 7.76 µM); MIC (P. aeruginosa KUB No. 5687, AR Bank # 254): > 64 µg/mL; MIC (P. aeruginosa KUB No. 5688, AR Bank # 255): > 64 µg/mL; MIC (P. aeruginosa KUB No. 5689, AR Bank # 256): 0.5 µg/mL (≈ 0.97 µM); MIC (P. aeruginosa KUB No. 5690, AR Bank # 257): 8 µg/mL (≈ 15.5 µM); MIC (P. aeruginosa KUB No. 5691, AR Bank # 258): 1 µg/mL (≈ 1.94 µM); MIC (P. aeruginosa KUB No. 5692, AR Bank # 259): 1 µg/mL (≈ 1.94 µM); MIC (P. aeruginosa KUB No. 5693, AR Bank # 260): 4 µg/mL (≈ 7.76 µM); MIC (P. aeruginosa KUB No. 5694, AR Bank # 261): 4 µg/mL (≈ 7.76 µM); MIC (P. aeruginosa KUB No. 5695, AR Bank # 262): 2 µg/mL (≈ 3.88 µM); MIC (P. aeruginosa KUB No. 5696, AR Bank # 263): 2 µg/mL (≈ 3.88 µM); MIC (P. aeruginosa KUB No. 5697, AR Bank # 264): 0.5 µg/mL (≈ 0.97 µM); MIC (P. aeruginosa KUB No. 5698, AR Bank # 265): 8 µg/mL (≈ 15.5 µM); MIC (P. aeruginosa KUB No. 5699, AR Bank # 266): 8 µg/mL (≈ 15.5 µM); MIC (P. aeruginosa KUB No. 5700, AR Bank # 267): 4 µg/mL (≈ 7.76 µM); MIC (P. aeruginosa KUB No. 5701, AR Bank # 268): 32 µg/mL (≈ 62.1 µM); MIC (P. aeruginosa KUB No. 5702, AR Bank # 269): 1 µg/mL (≈ 1.94 µM); MIC (P. aeruginosa KUB No. 5703, AR Bank # 270): 4 µg/mL (≈ 7.76 µM); MIC (P. aeruginosa KUB No. 5704, AR Bank # 271): 1 µg/mL (≈ 1.94 µM); MIC (P. aeruginosa KUB No. 5705, AR Bank # 272): 0.5 µg/mL (≈ 0.97 µM); MIC (P. aeruginosa KUB No. 5747, AR Bank # 351): > 64 µg/mL; MIC (P. aeruginosa KUB No. 5748, AR Bank # 352): > 64 µg/mL; MIC (P. aeruginosa KUB No. 5749, AR Bank # 353): > 64 µg/mL; MIC (P. aeruginosa KUB No. 5750, AR Bank # 354): 8 µg/mL (≈ 15.5 µM); MIC (P. aeruginosa KUB No. 5751, AR Bank # 355): 16 µg/mL (≈ 31 µM); MIC (P. aeruginosa KUB No. 5752, AR Bank # 356): > 64 µg/mL; MIC (P. aeruginosa KUB No. 5753, AR Bank # 357): > 64 µg/mL; MIC (P. aeruginosa KUB No. 5754, AR Bank # 358): 16 µg/mL (≈ 31 µM); MIC (P. aeruginosa KUB No. 5755, AR Bank # 359): 16 µg/mL (≈ 31 µM); MIC (P. aeruginosa KUB No. 5756, AR Bank # 360): 8 µg/mL (≈ 15.5 µM); MIC (P. aeruginosa KUB No. 5785, AR Bank # 439): > 64 µg/mL; MIC (P. aeruginosa KUB No. 5786, AR Bank # 440): 32 µg/mL (≈ 62.1 µM); MIC (P. aeruginosa KUB No. 5787, AR Bank # 441): > 64 µg/mL; MIC (P. aeruginosa KUB No. 5788, AR Bank # 443): > 64 µg/mL; MIC (P. aeruginosa KUB No. 5789, AR Bank # 444): > 64 µg/mL; MIC (P. aeruginosa KUB No. 5790, AR Bank # 445): 32 µg/mL (≈ 62.1 µM); MIC (P. aeruginosa KUB No. 5793, AR Bank # 449): > 64 µg/mL; MIC (P. aeruginosa KUB No. 5798, AR Bank # 455): 32 µg/mL (≈ 62.1 µM); MIC (P. aeruginosa KUB No. 5799, AR Bank # 456): 32 µg/mL (≈ 62.1 µM); MIC (P. aeruginosa KUB No. 5800, AR Bank # 457): > 64 µg/mL; MIC (P. aeruginosa KUB No. 5801, AR Bank # 458): 64 µg/mL (≈ 124 µM); MIC (P. aeruginosa KUB No. 5802, AR Bank # 459): 32 µg/mL (≈ 62.1 µM); MIC (P. aeruginosa KUB No. 5804, AR Bank # 862): 32 µg/mL (≈ 62.1 µM); MIC (P. aeruginosa KUB No. 5805, AR Bank # 863): > 64 µg/mL; MIC (P. aeruginosa KUB No. 5806, AR Bank # 864): 64 µg/mL (≈ 124 µM); MIC (P. aeruginosa KUB No. 5813, AR Bank # 508): > 0.064 µg/mL; MIC (P. aeruginosa KUB No. 5814, AR Bank # 509): > 0.064 µg/mL; MIC (P. aeruginosa KUB No. 5815, AR Bank # 510): 0.004 µg/mL (≈ 0.00776 µM); MIC (P. aeruginosa KUB No. 5816, AR Bank # 511): 0.0005 µg/mL (≈ 0.00097 µM); MIC (P. aeruginosa KUB No. 5817, AR Bank # 512): 0.002 µg/mL (≈ 0.00388 µM); MIC (P. aeruginosa KUB No. 5818, AR Bank # 513): 0.016 µg/mL (≈ 0.031 µM); MIC (P. aeruginosa KUB No. 5819, AR Bank # 514): 0.0005 µg/mL (≈ 0.00097 µM); MIC (P. aeruginosa KUB No. 5820, AR Bank # 515): 0.064 µg/mL (≈ 0.124 µM); MIC (P. aeruginosa KUB No. 5821, AR Bank # 516): > 0.064 µg/mL; MIC (P. aeruginosa KUB No. 5823, AR Bank # 518): > 0.064 µg/mL; MIC (P. aeruginosa KUB No. 5831, AR Bank # 526): 0.008 µg/mL (≈ 0.0155 µM); MIC (P. aeruginosa KUB No. 5832, AR Bank # 527): 0.008 µg/mL (≈ 0.0155 µM); MIC (P. aeruginosa KUB No. 5833, AR Bank # 528): 0.032 µg/mL (≈ 0.0621 µM); MIC (P. aeruginosa KUB No. 5834, AR Bank # 529): 0.008 µg/mL (≈ 0.0155 µM)

From patent EP4635500A1, “THERAPEUTIC AGENT FOR BACTERIAL INFECTION” (Sumitomo Pharma Co., Ltd., priority 2022, dated 2024)
